For 12 molecules, TGI results are on record in PubChem BioAssay (NCI).

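Tested at 5 concentrations; 48 h exposure; 96-well plates; endpoints linearly interpolated, else capped at highest concentration. TGI: concentration producing complete growth inhibition.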 Bounds are passed on as bounds.

Test in all cases: inhibition of tumour cell growth, NCI panel, 48 h
The test system of assay [1] is NCI-H522 lung.
Assay [2] relates to CAKI-1 renal.
The test system of assay [3] is OVCAR-8 ovarian.
Assay [4] relates to SR leukemia.
Assay [5] deals with UACC-257 melanoma.
For assay [6], the system named is NCI/ADR-RES ovarian.
Assay [7] deals with COLO 205 colon.
Assay [8] has as its system HT29 colon.
Assay [9] deals with MDA-MB-231 breast.

As to `COc1ccc2c(c1)c(=O)c1c(NCCCN(C)CCCNc3ccc4c(=O)n(CCN(C)C)c(=O)n5c6ccc(OC)cc6c(=O)c3c45)ccc3c(=O)n(CCN(C)C)c(=O)n2c31`, the TGI was determined as 0.544 µM in [1]; 0.784 µM in assay [2]; 2.65 µM in [3]; 0.255 µM in [4]; 2.11 µM in [5]; 2.26 µM in assay [6]. Also, the TGI in assay [7] came out at 0.803 µM; in [8], 1.28 µM; in [9], 2.56 µM.
As for `O=c1c(/C=C/c2c(O)ccc3ccccc23)nnc2sc(-c3cccc([N+](=O)[O-])c3)nn12`, the TGI in assay [1] is 28.1 µM; in assay [2], > 100 µM; in [3], > 100 µM; in assay [4], > 100 µM; in assay [5], 51 µM; in [6] it was 67.8 µM. In addition, the values for the TGI in assay [7], in assay [8] and in assay [9] were > 100 µM, > 100 µM and 58 µM, respectively.
For `CC1(CCc2ccccc2)CC1(Br)Br` (stereo unspecified), the TGI in [1] was 61.5 µM; in assay [2], > 100 µM; in [3], 50.8 µM; in assay [4], 41.6 µM; in [5] it was 83.6 µM; in assay [6], > 100 µM. Further, the TGI was 51.7 µM in assay [7], > 100 µM in assay [8] and > 100 µM in [9].
On to `COC(=O)c1ccc(CCC2=CC(=O)C(Br)=CC2=O)cc1`, for which the TGI in assay [1] is 10.5 µM; in assay [2], 26.4 µM; in assay [3] it was 32 µM; in assay [4], > 100 µM; in [5], 29 µM; in assay [6], 43.8 µM. Besides, the figures for the TGI in assay [7], in assay [8] and in assay [9] were 18.7 µM, 30.9 µM and 38.7 µM, respectively.
Take `Cc1c(C#N)c2nnn(-c3ccc([N+](=O)[O-])cc3)c(=O)n2c1-c1ccccc1`: the TGI in assay [1] was 13.9 µM; in assay [2], 52.2 µM; in assay [3], 25.7 µM; in assay [4] it was 46.3 µM; in assay [5], 47.6 µM; in [6], 65.5 µM. Besides, the values for the TGI in [7], in [8] and in assay [9] were 22.9 µM, 23.7 µM and 34.7 µM, respectively.
Consider `COc1cc(CCNC2=CC(=O)c3cccnc3C2=O)ccc1O`, for which the TGI in assay [1] was 2.26 µM; in assay [2] it was 5.04 µM; in [3] it was 12 µM; in assay [4], 12.2 µM; in assay [5], 2.18 µM; in assay [6], 11.5 µM. Further, the TGI was 3 µM in assay [7], 4.38 µM in [8] and 2.08 µM in assay [9].
As for `O=C(CCCC1Cc2ccccc2C1=O)c1ccccc1` (stereo unspecified), the TGI in [1] was > 100 µM; in assay [2], > 100 µM; in assay [3] it was > 100 µM; in assay [4], > 100 µM; in assay [5], > 100 µM; in [6] it was 84.6 µM. Besides, the TGI in assay [7], in assay [8] and in assay [9] was > 100 µM throughout.
`OCCN1CN(c2nc(N3CN(CCO)C3)nc(N3CN(CCO)C3)n2)C1`: the TGI in assay [1] was 30 µM; in [2], 58.2 µM; in [3], > 100 µM; in [4], > 100 µM; in assay [5], 36.2 µM; in [6], > 100 µM. For the same molecule, the TGI in [7] was 59.2 µM; in assay [8] it was 71.4 µM; in [9] it was 36.6 µM.
With `N#Cc1ccc(OC(=O)c2ccc(N=C(N)N)cc2)cc1`, the TGI in assay [1], in [2], in [3], in assay [4], in assay [5] and in assay [6] was > 100 µM throughout. In addition, the TGI in assay [7], in assay [8] and in assay [9] was > 100 µM throughout.
Turning to `Cc1c(C)c2c(c(N)c1C#N)C(=O)N(OS(=O)(=O)c1ccccc1)C2=O`, the TGI is 34 µM in assay [1]; 51 µM in assay [2]; 38.6 µM in assay [3]; > 100 µM in assay [4]; 68 µM in assay [5]; 58.9 µM in assay [6]. The TGI in assay [7] was 45.3 µM; in assay [9], > 100 µM.
`CC(=O)OC(CC(C)C)P1(=O)N(CC(C)(C)C)[C@@H]2CCCC[C@H]2N1CC(C)(C)C` (stereo partly specified): the TGI in [1] was 19.2 µM; in assay [2] it was 26 µM; in [3], 21.9 µM; in assay [4], 30.4 µM; in [5] it was 21.4 µM; in [6], 22.6 µM. Further, the TGI in assay [7] came to 18.2 µM; in assay [8], 19 µM; in assay [9], 19.7 µM.
In the case of `CN(C)Cc1cc(C(C)(C)C)cc(CNC2CCCCC2)c1O`, the TGI in [1] was 60.4 µM; in [2], > 100 µM; in assay [4] it was 71.8 µM; in assay [5], 79.8 µM; in assay [6] it was 69.4 µM; in [7], 33.3 µM. In addition, the TGI is 54.6 µM in [8] and > 100 µM in assay [9].
